# Reference: PMC8256334, “Simultaneous Determination of a Novel PD-L1 Inhibitor, IMMH-010, and Its Active Metabolite, YPD-29B, in Rat Biological Matrices by Polarity-Switching Liquid Chromatography-Tandem Mass Spectrometry: Application to ADME Studies” (Frontiers in Pharmacology, 2021)
# Where “and” joins values, the source holds several entries; their conditions need not be identical. Identical values can stand only once. Like-named read-outs stand apart in the source and are kept apart here.
# Assays:
# Assay type in all cases: in vivo, Sprague-Dawley rats
# [1] = PK study in rats after single i.g. administration of IMMH-010 maleate; conditions: rat plasma; for AUC(0-t) / Cmax / MRT last / Tmax / AUC(0-inf) / MRT inf / half-life: female, Sprague-Dawley, po, n = 5; for AUC(0-t) / Cmax / MRT last / AUC(0-inf) / MRT inf / half-life: mean ± SD; for MRT last: read-out: MRT(0-t); for Tmax: median (range); for MRT inf: read-out: MRT(0-∞); for half-life: rat, plasma, read-out: t1/2β (converted)
# From the text: (§1) Female Sprague-Dawley rats (200 ± 20 g, Vital River, Beijing, China) were kept in standard environmental conditions. Rats were fasted overnight with free access to water and randomly assigned to different groups before the experiments. All animal protocols were approved by the Institute Animal Care and Welfare Committee of the Institute of Materia Medica, Chinese Academy of Medical Sciences and Peking Union Medical College.
# IMMH-010 maleate was suspended in 0.5% sodium carboxymethyl cellulose. The rats were intragastrically (i.g.) administered IMMH-010 maleate at doses of 10, 30, and 100 mg/kg. Blood samples were withdrawn via the orbital plexus into heparinized tubes with NaF at 5, 15, and 30 min and 1, 2, 4, 6, 8, 12, 24, 36, and 48 h. Plasma was immediately prepared by centrifugation at 5,000 rpm for 10 min. All samples were stored at −20°C prior to analysis. The PK parameters of IMMH-010 and YPD-29B were calculated using the Linear Trapezoidal with Linear Interpolation method by WinNonlin software version 6.3 based on a noncompartmental model (Pharsight Corporation, Mountain View, United States ).
# [2] = Excretion study in rats (urine and feces); conditions: for excretion in feces, % Of administered dose: i.g. IMMH-010 maleate 10 mg/kg, n = 5
# Method: as §1
# After i. g. administration of IMMH-010 maleate (10 mg/kg), rats were housed in separate metabolite cages to collect their urine and feces: 0–12, 12–24, 24–36, 36–48, and 48–72 h for urine and 0–24, 24–48, and 48–72 h for feces. Fecal samples were dried in air. Urine samples were stored at −20°C prior to analysis.
# [3] = Tissue distribution study in rats; conditions: for concentration in adrenal gland / concentration in brain / concentration in heart / concentration in kidney / concentration in liver / concentration in lung / concentration in lymph / concentration in plasma / concentration in spleen / concentration in thymus: n = 5; for Kp at 0.25 h / Kp at 0.5 h: female, Sprague-Dawley, rat, oral, i.g. 10 mg/kg IMMH-010 maleate, read-out: T/P (tissue-to-plasma partition)
# Method: as §1
# The tissue distribution study was performed 15 min, 30 min, 4 h and 12 h after i. g. administration of 10 mg/kg IMMH-010 maleate. Blood was collected and centrifuged at 5,000 rpm for 10 min. The heart, liver, brain, spleen, lung, kidney, adrenal gland, thymus, and lymph were harvested immediately. The tissues were washed with normal saline and blotted dry with filter paper. All samples were stored at -20°C before analysis.
# [4] = single i.g. IMMH-010 maleate 10 mg/kg
# [5] = single i.g. IMMH-010 maleate 30 mg/kg
# [6] = single i.g. IMMH-010 maleate 100 mg/kg
# [7] = time 0.25 (15 min) after i.g. 10 mg/kg IMMH-010 maleate
# [8] = time 0.5 (30 min) after i.g. 10 mg/kg IMMH-010 maleate
# [9] = time 4 (4 h) after i.g. 10 mg/kg IMMH-010 maleate
smiles,measurement,setting,value
"CC(C)OC(=O)C(CO)NCc1cc(Cl)c(OCc2cccc(-c3ccccc3)c2Br)cc1OCc1cccnc1 (centres unmarked) [IMMH-010, 2-[4-(2-bromo-biphenyl-3-ylmethoxy)-5-chloro-2-(pyridin-3-ylmethoxy)-benzylamino]-3-hydroxy-propionic acid isopropyl ester]",AUC(0-t),[1]; [4],8.5 ± 3.67 ng·h/mL
same,Cmax,[1]; [4],8.45 ± 3.27 ng/mL
same,MRT last,[1]; [4],0.8 ± 0.13 h
same,Tmax,[1]; [4],0.5 h
same,AUC(0-inf),[1]; [5],44.1 ± 20.6 ng·h/mL
same,AUC(0-t),[1]; [5],37.5 ± 13.5 ng·h/mL
same,Cmax,[1]; [5],28.4 ± 13 ng/mL
same,MRT last,[1]; [5],1.09 ± 0.21 h
same,MRT inf,[1]; [5],1.49 ± 0.3 h
same,Tmax,[1]; [5],0.5 h
same,AUC(0-inf),[1]; [6],134 ± 45.7 ng·h/mL
same,AUC(0-t),[1]; [6],129 ± 45.6 ng·h/mL
same,Cmax,[1]; [6],71.4 ± 34 ng/mL
same,MRT last,[1]; [6],1.82 ± 0.53 h
same,MRT inf,[1]; [6],2.11 ± 0.69 h
same,Tmax,[1]; [6],0.5 h
same,half-life,"[1]; 30 mg/kg, single i.g. IMMH-010 maleate 30 mg/kg",0.98 ± 0.28 h
same,half-life,"[1]; 100 mg/kg, single i.g. IMMH-010 maleate 100 mg/kg",1.63 ± 0.49 h
same,dose dependence of AUC,"[1]; dose range 10–100 mg/kg IMMH-010 maleate, oral",proportional to the dose
same,"excretion in feces, % Of administered dose",[2]; time 24 h,6.97 ± 5.69 % Of administered dose
same,"excretion in feces, % Of administered dose",[2]; time 48 h,7.99 ± 5.66 % Of administered dose
same,"excretion in feces, % Of administered dose",[2]; time 72 h,7.99 % Of administered dose and 7.99 ± 5.66 % Of administered dose
same,share of the dose recovered in the urine and feces as this analyte,"[2]; urine and feces within 72 h, rats, oral IMMH-010 maleate",7.99%
same,concentration in adrenal gland,"[3]; adrenal gland, time 0.25 (15 min) after i.g. 10 mg/kg IMMH-010 maleate",80.8 ± 47.4 ng/ml or ng/g
same,concentration in adrenal gland,"[3]; adrenal gland, time 0.5 (30 min) after i.g. 10 mg/kg IMMH-010 maleate",204 ± 132 ng/ml or ng/g
same,concentration in adrenal gland,"[3]; adrenal gland, time 4 (4 h) after i.g. 10 mg/kg IMMH-010 maleate",41.3 ± 6.9 ng/ml or ng/g
same,concentration in brain,"[3]; brain, time 0.25 (15 min) after i.g. 10 mg/kg IMMH-010 maleate",6.22 ± 0.34 ng/ml or ng/g
same,concentration in brain,"[3]; brain, time 0.5 (30 min) after i.g. 10 mg/kg IMMH-010 maleate",3.66 ± 3.35 ng/ml or ng/g
same,concentration in brain,"[3]; brain, time 4 (4 h) after i.g. 10 mg/kg IMMH-010 maleate",BLQ
same,Kp at 0.25 h,[3]; adrenal gland,25
same,Kp at 0.5 h,[3]; adrenal gland,51.1
same,Kp at 0.25 h,[3]; brain,1.9
same,Kp at 0.5 h,[3]; brain,0.9
same,Kp at 0.25 h,[3]; heart,5.4
same,Kp at 0.5 h,[3]; heart,9.5
same,Kp at 0.25 h,[3]; liver,3.8
same,Kp at 0.5 h,[3]; liver,6.4
same,Kp at 0.5 h,[3]; lung,0.3
same,Kp at 0.25 h,[3]; lymph,1.7
same,Kp at 0.5 h,[3]; lymph,21.2
same,Kp at 0.25 h,[3]; spleen,0.9
same,Kp at 0.5 h,[3]; spleen,2
same,concentration in heart,"[3]; heart, time 0.25 (15 min) after i.g. 10 mg/kg IMMH-010 maleate",17.3 ± 10.5 ng/ml or ng/g
same,concentration in heart,"[3]; heart, time 0.5 (30 min) after i.g. 10 mg/kg IMMH-010 maleate",38.1 ± 25.8 ng/ml or ng/g
same,concentration in heart,"[3]; heart, time 4 (4 h) after i.g. 10 mg/kg IMMH-010 maleate",1.92 ± 2.66 ng/ml or ng/g
same,concentration in kidney,[3]; [7],BLQ
same,concentration in kidney,[3]; [8],BLQ
same,concentration in kidney,[3]; [9],BLQ
same,concentration in liver,"[3]; liver, time 0.25 (15 min) after i.g. 10 mg/kg IMMH-010 maleate",12.4 ± 13.4 ng/ml or ng/g
same,concentration in liver,"[3]; liver, time 0.5 (30 min) after i.g. 10 mg/kg IMMH-010 maleate",25.6 ± 19.8 ng/ml or ng/g
same,concentration in liver,"[3]; liver, time 4 (4 h) after i.g. 10 mg/kg IMMH-010 maleate",6.30 ± 5.77 ng/ml or ng/g
same,concentration in lung,"[3]; lung, time 0.25 (15 min) after i.g. 10 mg/kg IMMH-010 maleate",BLQ
same,concentration in lung,"[3]; lung, time 0.5 (30 min) after i.g. 10 mg/kg IMMH-010 maleate",1.37 ± 3.06 ng/ml or ng/g
same,concentration in lung,"[3]; lung, time 4 (4 h) after i.g. 10 mg/kg IMMH-010 maleate",BLQ
same,concentration in lymph,"[3]; lymph, time 0.25 (15 min) after i.g. 10 mg/kg IMMH-010 maleate",5.46 ± 5.1 ng/ml or ng/g
same,concentration in lymph,"[3]; lymph, time 0.5 (30 min) after i.g. 10 mg/kg IMMH-010 maleate",84.6 ± 87.9 ng/ml or ng/g
same,concentration in lymph,"[3]; lymph, time 4 (4 h) after i.g. 10 mg/kg IMMH-010 maleate",12.5 ± 7.1 ng/ml or ng/g
same,concentration in plasma,[3]; [7],3.23 ± 2.28 ng/ml or ng/g
same,concentration in plasma,[3]; [8],3.99 ± 3.45 ng/ml or ng/g
same,concentration in plasma,[3]; [9],BLQ
same,concentrations in tissues at 12 h,"[3]; rat tissues, 12 h after oral 10 mg/kg IMMH-010 maleate",below the LLOQ
same,tissues of main distribution,"[3]; rats, oral 10 mg/kg IMMH-010 maleate","adrenal gland, followed by the lymph, heart, liver and spleen"
same,concentration in spleen,"[3]; spleen, time 0.25 (15 min) after i.g. 10 mg/kg IMMH-010 maleate",2.98 ± 2.77 ng/ml or ng/g
same,concentration in spleen,"[3]; spleen, time 0.5 (30 min) after i.g. 10 mg/kg IMMH-010 maleate",8.08 ± 8.51 ng/ml or ng/g
same,concentration in spleen,"[3]; spleen, time 4 (4 h) after i.g. 10 mg/kg IMMH-010 maleate",0.848 ± 1.896 ng/ml or ng/g
same,concentration in thymus,[3]; [7],BLQ
same,concentration in thymus,[3]; [8],BLQ
same,concentration in thymus,[3]; [9],BLQ
